Common to all, as to assay type: in vitro ADME
One assay deals with T1, CYP2C19 (Homo sapiens, UniProt P33261).
T1 construct: Mixed human liver microsomes (HLM) were purchased from Corning Inc; tissue Corning Inc. or XenoTech, LLC. or other suppliers; host or cells: pooled human liver microsomes
In words: Human liver microsomal CYP inhibition experiment, CYP2C19. As to the method:
(§1) Experiment Embodiment 4: Human Liver Microsomal CYP Inhibition Experiment
(§2) The inhibitory effects of the test compound 3A and VK5211 on the activities of human liver microsomal cytochrome P450 isozymes (CYP1A2, CYP2C9, CYP2C19, CYP2D6 and CYP3A4) were determined.
(§3) Mixed human liver microsomes (HLM) were purchased from Corning Inc. (Steuben, New York, USA) or XenoTech, LLC. (Lenexa, Kans., USA) or other suppliers, and were stored at a temperature below −60° C. before use.
(§4) First, the test compound (10.0 mM) was gradient diluted to prepare working solution (100×final concentration), and the concentrations of the working solution were: 5.00, 1.50, 0.500, 0.150, 0.0500, 0.0150, 0.00500 mM, and a working solution of each positive inhibitor of P450 isozymes (CYP1A2, CYP2C9, CYP2C19, CYP2D6, and CYP3A4) and a specific substrate mixture thereof (5 in 1) were prepared at the same time; human liver microsomes stored in a refrigerator at a temperature lower than −60° C. were put on ice to thaw, and when all the human liver microsomes were dissolved, the microsomes were diluted with potassium phosphate buffer (PB) to prepare a working solution of a certain concentration (0.253 mg/mL). […] The concentration of metabolites produced by the probe substrate in the sample was determined by liquid chromatography-tandem mass spectrometry (LC-MS/MS) method. […]

In a further assay the target is T2, CYP2D6 (Homo sapiens, UniProt P10635).
T2 construct: Mixed human liver microsomes (HLM) were purchased from Corning Inc; tissue Corning Inc. or XenoTech, LLC. or other suppliers; host or cells: pooled human liver microsomes
In words: Human liver microsomal CYP inhibition experiment, CYP2D6. As to the method:
as §1, §2, §3, §4
For orientation: Liver microsomes are vesicles of endoplasmic reticulum, rich in cytochrome P450 enzymes.

A further assay has as its target T3, CYP3A4 (Homo sapiens, UniProt P08684).
T3 construct: Mixed human liver microsomes (HLM) were purchased from Corning Inc; tissue Corning Inc. or XenoTech, LLC. or other suppliers; host or cells: pooled human liver microsomes
The experiment in a line: Human liver microsomal CYP inhibition experiment, CYP3A4. As to the method:
as §1, §2, §3, §4

Bounds are passed on as bounds.

For orientation: IC50 means the concentration that gives 50% inhibition. The low end stands for greater potency, the high end for weaker potency.

T3 sequence (P08684 whole entry): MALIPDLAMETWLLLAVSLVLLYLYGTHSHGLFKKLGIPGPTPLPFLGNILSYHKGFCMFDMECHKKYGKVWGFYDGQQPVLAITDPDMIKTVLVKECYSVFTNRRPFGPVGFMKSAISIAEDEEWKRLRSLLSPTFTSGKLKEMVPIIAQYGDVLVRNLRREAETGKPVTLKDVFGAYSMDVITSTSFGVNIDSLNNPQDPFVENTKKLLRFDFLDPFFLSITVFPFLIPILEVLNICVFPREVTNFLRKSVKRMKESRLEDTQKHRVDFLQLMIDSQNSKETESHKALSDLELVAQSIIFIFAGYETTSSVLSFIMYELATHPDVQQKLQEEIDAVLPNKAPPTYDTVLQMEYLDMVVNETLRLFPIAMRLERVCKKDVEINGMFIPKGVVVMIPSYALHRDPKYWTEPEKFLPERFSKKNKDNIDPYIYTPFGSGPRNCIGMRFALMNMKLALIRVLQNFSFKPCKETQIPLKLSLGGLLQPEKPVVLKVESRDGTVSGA
T2 sequence (P10635 whole entry): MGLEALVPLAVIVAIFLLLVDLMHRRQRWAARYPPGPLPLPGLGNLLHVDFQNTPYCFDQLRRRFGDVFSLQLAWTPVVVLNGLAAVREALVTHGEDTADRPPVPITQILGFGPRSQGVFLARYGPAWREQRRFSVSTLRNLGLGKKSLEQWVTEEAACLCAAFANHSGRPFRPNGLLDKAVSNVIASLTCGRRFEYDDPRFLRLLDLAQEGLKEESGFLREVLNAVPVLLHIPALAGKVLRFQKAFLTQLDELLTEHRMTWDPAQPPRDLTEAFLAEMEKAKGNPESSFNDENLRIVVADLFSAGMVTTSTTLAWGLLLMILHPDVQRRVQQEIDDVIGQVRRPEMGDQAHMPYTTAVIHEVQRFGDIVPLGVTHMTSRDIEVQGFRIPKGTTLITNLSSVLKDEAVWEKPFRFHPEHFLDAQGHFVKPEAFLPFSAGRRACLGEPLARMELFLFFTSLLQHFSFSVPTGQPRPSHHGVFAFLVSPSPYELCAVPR
T1 sequence (P33261 whole entry): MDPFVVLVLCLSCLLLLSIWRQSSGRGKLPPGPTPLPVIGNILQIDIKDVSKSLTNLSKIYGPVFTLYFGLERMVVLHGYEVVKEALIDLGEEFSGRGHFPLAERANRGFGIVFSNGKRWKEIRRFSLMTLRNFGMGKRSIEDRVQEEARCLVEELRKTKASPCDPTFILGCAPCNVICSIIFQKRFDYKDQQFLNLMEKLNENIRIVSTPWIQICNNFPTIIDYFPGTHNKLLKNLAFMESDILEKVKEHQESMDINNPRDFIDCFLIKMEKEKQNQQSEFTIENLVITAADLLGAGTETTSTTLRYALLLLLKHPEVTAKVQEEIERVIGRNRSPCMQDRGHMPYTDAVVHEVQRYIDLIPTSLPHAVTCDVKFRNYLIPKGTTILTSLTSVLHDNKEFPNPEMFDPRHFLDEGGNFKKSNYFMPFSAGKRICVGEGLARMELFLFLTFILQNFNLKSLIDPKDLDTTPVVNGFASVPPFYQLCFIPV

Take `N#Cc1ccc(N2CC3CC3C2C(O)C(F)(F)F)cc1Cl` (single isomer, unassigned) [Compound 3A]: the results for the concentration for half-maximal inhibition (IC50) on CYP2C19, against CYP2D6 and on CYP3A4 were 12.1 µM, above 50 µM and above 50 µM, respectively.
